Measurements as given in publication PMC10804372, “Degradation by Design: New Cyclin K Degraders from Old CDK Inhibitors” (ACS Chemical Biology, 2024).

What was measured:
[1] = test system: Cyclin K; assay: Cyclin K levels by Western blot after single-concentration treatment; assay type: cell-based, human; conditions: HEK293T cells, 1 μM for 2 h; for Remaining Cyclin K (%): quantified from Western blots, mean ± SD, three independent experiments; for cyclin K degradation: Western blot
Method: (§1) HEK293T human […] kidney cells were cultured in DMEM (Gibco/Life Technologies), containing 25 mM D-glucose, 4 mM L-glutamine, and 1 mM sodium pyruvate, and supplemented with 10% (v/v) FBS and 1% nonessential amino acids (Gibco/Life Technologies). Cells were incubated at 37 °C in a humidified atmosphere with 5% CO2.
(§2) Cells were washed with PBS and lysed (20 mM HEPES pH 7.5, 10% glycerol, 0.4 M KCl, 0.4% Triton X-100, 15 mM EDTA, and 1× protease and phosphatase inhibitors). The insoluble fraction was removed by centrifugation. Protein quantification was performed using a Bradford assay and compared to a BSA calibration curve. Equal amounts of lysates were run on SDS–PAGE 4–12% Bis–Tris Protein Gels (NuPAGE, Thermo Fisher Scientific) and then transferred onto Immobilon-P PVDF Membrane (Millipore, IPVH00010) using a Mini Trans-Blot Cell (Bio-Rad, 1703930). The membranes were blocked with 5% bovine albumin serum (BSA) in Tris-buffered saline with Tween 20 (TBS-T) and incubated with primary antibodies overnight at 4 °C. The membranes were washed three times with TBS-T and incubated with HRP-conjugated secondary antibody (BioRad) for 2 h. Membranes were washed again three times with TBS-T before being developed using Pierce ECL Western Blotting Substrate (Thermo, 32106) and visualized using LI-COR. Antibodies were purchased from Cell Signaling Technology: anti-GAPDH (D4C6R) and anti-DDB1 (D4C8) or Bethyl Laboratories: anti-Cyclin K (A301-939A). The following HRP-linked secondary antibodies were used by dilution in 5% BSA/TBS-T: antirabbit IgG (BioRad, 5213–2504) and antimouse IgG (BioRad, 103005).
(§3) Unedited blots containing the marker lane are available on request. Western blots were quantified using ImageJ. Cyclin K levels were normalized using GAPDH as a loading control. DC50 values were calculated from concentration–response curves using nonlinear regression fit to a 4-parameter curve by GraphPad Prism.

[2] = test system: CDK9; conditions: cited from earlier work
[3] = PAMPA permeability; assay type: in vitro ADME; conditions: for Papp: pH 7.4, PAMPA, pH7.4, read-out: pH7.4 Papp x 10^-6
[4] = target: T1, CDK12 (Homo sapiens, UniProt Q9NYV4); assay: KINOMEscan binding assay (Eurofins DiscoverX); conditions: for Kd: KINOMEscan
T1 construct: purchased Eurofins DiscoverX (KINOMEscan service)
T1 sequence (Q9NYV4 whole entry): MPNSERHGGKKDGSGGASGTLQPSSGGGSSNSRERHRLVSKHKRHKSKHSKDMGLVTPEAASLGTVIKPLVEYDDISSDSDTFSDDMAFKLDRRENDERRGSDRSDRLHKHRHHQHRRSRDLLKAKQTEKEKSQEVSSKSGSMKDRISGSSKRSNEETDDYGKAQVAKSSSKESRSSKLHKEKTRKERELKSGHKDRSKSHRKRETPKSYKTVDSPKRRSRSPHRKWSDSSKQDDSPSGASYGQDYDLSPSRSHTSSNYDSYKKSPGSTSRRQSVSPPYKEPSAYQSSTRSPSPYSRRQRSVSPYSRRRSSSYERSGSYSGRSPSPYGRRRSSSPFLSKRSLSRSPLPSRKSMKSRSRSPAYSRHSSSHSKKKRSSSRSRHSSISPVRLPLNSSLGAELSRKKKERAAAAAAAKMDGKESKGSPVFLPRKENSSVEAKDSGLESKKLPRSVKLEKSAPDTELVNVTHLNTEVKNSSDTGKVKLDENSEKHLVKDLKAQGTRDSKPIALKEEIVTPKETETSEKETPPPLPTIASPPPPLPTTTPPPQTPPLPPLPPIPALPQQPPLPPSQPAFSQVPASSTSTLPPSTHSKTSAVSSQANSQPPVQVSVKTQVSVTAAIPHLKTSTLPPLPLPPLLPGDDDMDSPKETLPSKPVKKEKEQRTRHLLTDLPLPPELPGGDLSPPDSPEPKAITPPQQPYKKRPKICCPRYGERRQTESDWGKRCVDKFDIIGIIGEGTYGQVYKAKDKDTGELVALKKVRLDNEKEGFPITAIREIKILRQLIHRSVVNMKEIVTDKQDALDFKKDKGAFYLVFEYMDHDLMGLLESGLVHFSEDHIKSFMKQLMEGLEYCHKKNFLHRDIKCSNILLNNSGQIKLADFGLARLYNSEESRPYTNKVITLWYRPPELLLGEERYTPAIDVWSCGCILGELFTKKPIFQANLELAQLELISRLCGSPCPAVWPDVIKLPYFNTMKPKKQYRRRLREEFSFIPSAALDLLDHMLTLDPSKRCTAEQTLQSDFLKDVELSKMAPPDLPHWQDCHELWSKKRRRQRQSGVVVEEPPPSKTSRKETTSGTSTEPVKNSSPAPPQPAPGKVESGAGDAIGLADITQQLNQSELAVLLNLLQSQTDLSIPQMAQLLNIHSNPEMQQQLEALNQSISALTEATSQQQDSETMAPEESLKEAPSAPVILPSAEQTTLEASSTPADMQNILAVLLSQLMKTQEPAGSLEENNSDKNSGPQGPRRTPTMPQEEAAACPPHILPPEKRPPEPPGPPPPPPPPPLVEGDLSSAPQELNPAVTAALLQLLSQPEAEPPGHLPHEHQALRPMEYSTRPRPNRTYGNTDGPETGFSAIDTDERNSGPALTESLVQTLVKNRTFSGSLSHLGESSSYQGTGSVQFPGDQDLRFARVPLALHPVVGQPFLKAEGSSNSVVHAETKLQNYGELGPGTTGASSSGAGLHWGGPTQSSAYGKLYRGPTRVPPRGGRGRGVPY

[5] = test system: Cyclin K; assay: Cyclin K degradation concentration-response (DC50, DMax) by Western blot; assay type: cell-based, human; conditions: for DMax (%) / DC50: HEK293T, Western blot quantification, 3 biological repeats; for DC50: read-out: CycK DC50
Method: With the aim of comparing the degradation ability of the new analogues, we derived DC50 values by using Western blotting (Table 5). […] This approach has been previously used to improve the potency of BCL6 degraders.[33] We therefore also measured CDK12 affinity using the KINOMEscan binding assay (Table 5).[34]
as §1, §2, §3

[6] = test system: HEK293T cells; assay: Proteome-wide quantitation by mass spectrometry (TMT); assay type: cell-based, human; conditions: for number of proteins showing at least a −0.5 log2 fold change / cyclin K log2 fold decrease: HEK293T, 1 μM; for number of proteins showing at least a −0.5 log2 fold change: 2 h treatment; for cyclin K log2 fold decrease: 2 h vs DMSO; for log2FC compound 21 / log2FC compound 37: 1 uM 2h vs DMSO
[7] = test system: CDK1; conditions: cited from earlier work
[8] = test system: CDK5; conditions: cited from earlier work

CC[C@H](CO)Nc1nc(NCc2ccccc2)c2ncn(C(C)C)c2n1 [compound 2, reference compound]
Remaining Cyclin K (%) [1]: 99 ± 1%
activity at CDK9 [2]: sub-μM activity

CC[C@H](CO)Nc1nc(NCc2ccc(-c3ccc(O)cn3)cc2)c2ncn(C(C)C)c2n1 [compound 8]
Remaining Cyclin K (%) [1]: 94 ± 9%
Papp [3]: < 0.3 ×10⁻⁶ cm/s

CC[C@H](CO)Nc1nc(NCc2ccc(-c3cc(=O)cc[nH]3)cc2)c2ncn(C(C)C)c2n1 [compound 15]
cyclin K degradation [1]: total loss of degradation ability
Remaining Cyclin K (%) [1]: 89 ± 11%
Papp [3]: < 0.2 ×10⁻⁶ cm/s
Kd [4]: 86 nM
DMax (%) [5]: >95%
DC50 [5]: 18 nM

CC[C@H](CO)Nc1nc(NCc2ccc(-c3ncccc3O)cc2)c2ncn(C(C)C)c2n1 [compound 20]
cyclin K degradation [1]: reduced degradation ability compared to CR8
Remaining Cyclin K (%) [1]: 35 ± 3%
Papp [3]: < 0.4 ×10⁻⁶ cm/s

CC[C@H](CO)Nc1nc(NCc2ccc(C3=CCOCC3)cc2)c2ncn(C(C)C)c2n1 [compound 21]
cyclin K degradation [1]: complete degradation comparable to CR8
Remaining Cyclin K (%) [1]: 1 ± 1%
PAMPA permeability [3]: comparable permeabilities
Papp [3]: 40.2 ×10⁻⁶ cm/s
Kd [4]: 280 nM
DMax (%) [5]: >95%
DC50 [5]: 32 nM
number of proteins showing at least a −0.5 log2 fold change [6]: six
cyclin K log2 fold decrease [6]: 2.47 log2 fold
log2FC compound 21 ([6]; protein CBX6): -0.5911
log2FC compound 21 ([6]; protein CCNK (Cyclin-K)): -2.4569
log2FC compound 21 ([6]; protein CDK13): -0.9121
log2FC compound 21 ([6]; protein FYTTD1): -0.5054
log2FC compound 21 ([6]; protein HES1): 0.4216

CC[C@H](CO)Nc1nc(NCc2ccc(C3CCCCC3)cc2)c2ncn(C(C)C)c2n1 [compound 23]
cyclin K degradation [1]: degradation ability was significantly reduced
Remaining Cyclin K (%) [1]: 74 ± 10%
Papp [3]: 12.7 ×10⁻⁶ cm/s

CC[C@H](CO)Nc1nc(NCc2ccc(N3CCOCC3)cc2)c2ncn(C(C)C)c2n1 [compound 25]
cyclin K degradation [1]: only partial degradation
Remaining Cyclin K (%) [1]: 41 ± 23%
PAMPA permeability [3]: comparable permeabilities
Papp [3]: 41 ×10⁻⁶ cm/s

CC[C@H](CO)Nc1nc(NCc2ccc(-c3ccco3)cc2)c2ncn(C(C)C)c2n1 [compound 29]
cyclin K degradation [1]: complete degradation
Remaining Cyclin K (%) [1]: 3 ± 2%
Papp [3]: 33.7 ×10⁻⁶ cm/s
Kd [4]: 640 nM
DMax (%) [5]: >95%
DC50 [5]: 199 nM
fold decrease in degradation ability versus pyridine counterpart ([5]; furan analogues vs 1 (CR8), 36, 40): 4–8 fold

CC[C@H](CO)Nc1nc(NCc2ccc(-c3cn(C)cn3)cc2)c2ncn(C(C)C)c2n1 [compound 30]
cyclin K degradation [1]: decreased degradation ability
Remaining Cyclin K (%) [1]: 38 ± 21%
Papp [3]: < 0.3 ×10⁻⁶ cm/s

CC[C@H](CO)Nc1nc(NCc2ccc(-c3cn[nH]c3)cc2)c2ncn(C(C)C)c2n1 [compound 31]
cyclin K degradation [1]: complete loss of degradation
Remaining Cyclin K (%) [1]: 93 ± 10%
PAMPA permeability [3]: low permeability
Papp [3]: < 0.2 ×10⁻⁶ cm/s

OCCC1CCCCN1c1cc(NCc2ccc(C3=CCOCC3)cc2)n2ncc(Br)c2n1 (stereo not shown) [compound 37]
cyclin K degradation [1]: only partial degradation
Remaining Cyclin K (%) [1]: 32 ± 11%
fold better CDK12 affinity versus CR8/seliciclib-core analogue ([4]; 36 vs 1, 37 vs 21): 25 fold
Kd [4]: 12 nM
DMax (%) [5]: 75%
DC50 [5]: 41 nM
number of proteins showing at least a −0.5 log2 fold change [6]: 28 proteins
cyclin K log2 fold decrease [6]: 0.75 log2 fold
log2FC compound 37 ([6]; protein ARF4): 0.5982
log2FC compound 37 ([6]; protein C1orf167): 0.8136
log2FC compound 37 ([6]; protein CBX6): -0.9913
log2FC compound 37 ([6]; protein CCNE2): 0.934
log2FC compound 37 ([6]; protein CCNK (Cyclin-K)): -0.7468
log2FC compound 37 ([6]; protein CD9): 0.636
log2FC compound 37 ([6]; protein CD59): 1.0368
log2FC compound 37 ([6]; protein CD63): 1.1474
log2FC compound 37 ([6]; protein CD151): 0.6898
log2FC compound 37 ([6]; protein CDKL5): 1.0373
log2FC compound 37 ([6]; protein CHCHD2): -1.0001
log2FC compound 37 ([6]; protein CHTOP): -0.8383
log2FC compound 37 ([6]; protein COPRS): 0.6
log2FC compound 37 ([6]; protein COX6B1): 0.6513
log2FC compound 37 ([6]; protein COX7A2): -1.2026
log2FC compound 37 ([6]; protein DCDC1): 1.1229
log2FC compound 37 ([6]; protein DDX56): -0.6203
log2FC compound 37 ([6]; protein DHX58): 0.8865
log2FC compound 37 ([6]; protein ECI1): 0.6918
log2FC compound 37 ([6]; protein EI24): 0.7719
log2FC compound 37 ([6]; protein FAM234A): 0.6256
log2FC compound 37 ([6]; protein FITM2): 0.6697
log2FC compound 37 ([6]; protein FYTTD1): -2.375
log2FC compound 37 ([6]; protein H2AC6): -2.0131
log2FC compound 37 ([6]; protein H2AC14): -1.9547
log2FC compound 37 ([6]; protein HES1): -0.614
log2FC compound 37 ([6]; protein HEY1): -0.6221
log2FC compound 37 ([6]; protein HMGN2): -0.636
log2FC compound 37 ([6]; protein KCTD1): 0.7125
log2FC compound 37 ([6]; protein LIPA): 0.6704
log2FC compound 37 ([6]; protein LPCAT3): 1.2861
log2FC compound 37 ([6]; protein LPIN2): 0.6164
log2FC compound 37 ([6]; protein LSM1): 0.8572
log2FC compound 37 ([6]; protein MBTPS2): 0.6567
log2FC compound 37 ([6]; protein MEIS1): -0.7346
log2FC compound 37 ([6]; protein MGARP): 0.6836
log2FC compound 37 ([6]; protein MSMO1): 0.6345
log2FC compound 37 ([6]; protein MT-ND4): 0.6222
log2FC compound 37 ([6]; protein NSA2): -1.3835
log2FC compound 37 ([6]; protein NXT2): 1.1373
log2FC compound 37 ([6]; protein PPP1CB): -0.7306
log2FC compound 37 ([6]; protein PPP1R15B): -0.7195
log2FC compound 37 ([6]; protein PRNP): 0.8396
log2FC compound 37 ([6]; protein RER1): 0.5962
log2FC compound 37 ([6]; protein RPF1): -0.9869
log2FC compound 37 ([6]; protein RPS14): -0.5979
log2FC compound 37 ([6]; protein RPS29): -0.7373
log2FC compound 37 ([6]; protein SIAE): 0.6299
log2FC compound 37 ([6]; protein SLC44A2): 0.8263
log2FC compound 37 ([6]; protein SNAI2): -1.0919
log2FC compound 37 ([6]; protein SURF6): -0.5977
log2FC compound 37 ([6]; protein TMSB4X): -0.7637
log2FC compound 37 ([6]; protein TOB1): -1.2431
log2FC compound 37 ([6]; protein TOB2): -0.8728
log2FC compound 37 ([6]; protein TVP23C): 0.6132
log2FC compound 37 ([6]; protein WHAMM): -1.0385
log2FC compound 37 ([6]; protein ZBTB17): 0.799
log2FC compound 37 ([6]; protein ZKSCAN2): -0.5989
log2FC compound 37 ([6]; protein ZNF92): -0.7406
log2FC compound 37 ([6]; protein ZNF385A): -0.6523

CCc1cnn2c(NCc3ccc[n+]([O-])c3)cc(N3CCCC[C@H]3CCO)nc12 [dinaciclib]
activity at CDK1 [7]: sub-μM activity
activity at CDK5 [8]: sub-μM activity
